{"source": "paper PMC11645656", "about": "“MRGPRX4 mediates phospho-drug associated pruritus in a humanized mouse model” (Science translational medicine, 2024)", "key": {"MRGPRX4 (S83)": {"target": "T1, MRGPRX4 (S83) (Homo sapiens, UniProt Q96LA9, L83S)", "T1 construct": "expressed in transfected cells", "T1 sequence (Q96LA9 whole entry L83S)": "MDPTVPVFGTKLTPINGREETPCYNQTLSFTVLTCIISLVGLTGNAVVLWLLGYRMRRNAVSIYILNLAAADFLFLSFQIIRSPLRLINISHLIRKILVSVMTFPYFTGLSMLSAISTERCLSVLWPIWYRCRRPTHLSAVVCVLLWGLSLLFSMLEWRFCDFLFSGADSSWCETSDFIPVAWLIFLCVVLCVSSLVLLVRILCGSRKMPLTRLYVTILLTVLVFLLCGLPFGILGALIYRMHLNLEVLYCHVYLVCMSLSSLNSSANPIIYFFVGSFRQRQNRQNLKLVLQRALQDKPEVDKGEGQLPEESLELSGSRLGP", "assay": "EC50 determination, intracellular calcium mobilization in MRGPRX4 stably expressed HEK293 cells (FLIPR Calcium 5, Flexstation-3)", "type": "cell-based", "parameters": "Fig. 1D dose-response, calcium mobilization response (individual replicate) / calcium mobilization response (Fig. 1D dose-response raw data): unit not given here", "details": "individual replicate values, listed as Phenytoin Sodium; for Fig. 1D dose-response, calcium response at Concentration (M): phenytoin series", "procedure,_shortened": "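EC50 came from a four-parameter logistic fit to averaged triplicate responses, each response being maximum post-stimulation signal less baseline. Intracellular calcium was monitored with Calcium 5 dye in HBSS with 20 mM HEPES, pH 7.4, after 1 h dye loading at 37 °C, using stably transfected HEK293 cells and parental controls.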"}, "NP2-WT mice": {"test_system": "NP2-WT mice", "assay": "Itch behavioral study (scratching bouts after subcutaneous nape injection) in littermate control NP2-WT mice", "type": "in vivo", "details": "30 min after injection of 50 μl 10 mM into the nape, each cell one mouse"}, "[1]": {"details": "IV, clinical trials; ref New Drug Application: 020450; cited from earlier work"}, "MRGPRX4 WT (S83)": {"target": "MRGPRX4 WT (S83) (Homo sapiens, UniProt Q96LA9, L83S)", "sequence (Q96LA9 whole entry L83S)": "as above", "assay": "PRESTO-Tango β-arrestin recruitment assay, HTLA cells stably expressing WT (S83) MRGPRX4", "type": "cell-based", "parameters": "expressed in transfected cells", "details": "HTLA::MRGPRX4"}}, "note": "Values joined by “and” are separate entries in the source; they are usually repeats but may differ in a detail not shown here. Equal values may be shown once."}
{"smiles": "O=C1NC(=O)C(c2ccccc2)(c2ccccc2)N1", "note": "[Phenytoin]", "values": [{"measurement": "Fig. 1D dose-response, calcium response at Concentration (M)", "setting": "MRGPRX4 (S83); 4.88281e-7 M", "result": "-45.834 and -46.962 and -43.233"}, {"measurement": "Fig. 1D dose-response, calcium response at Concentration (M)", "setting": "MRGPRX4 (S83); 9.76563e-7 M", "result": "-42.023 and -51.874 and -41.78"}, {"measurement": "Fig. 1D dose-response, calcium response at Concentration (M)", "setting": "MRGPRX4 (S83); 1.95313e-6 M", "result": "-57.631 and -43.259 and -52.591"}, {"measurement": "Fig. 1D dose-response, calcium response at Concentration (M)", "setting": "MRGPRX4 (S83); 3.90625e-6 M", "result": "-30.902 and -51.949 and -54.701"}, {"measurement": "Fig. 1D dose-response, calcium response at Concentration (M)", "setting": "MRGPRX4 (S83); 7.8125e-6 M", "result": "-36.341 and -24.025 and -23.478"}, {"measurement": "Fig. 1D dose-response, calcium response at Concentration (M)", "setting": "MRGPRX4 (S83); 1.5625e-5 M", "result": "-24.49 and -31.993 and -24.486"}, {"measurement": "Fig. 1D dose-response, calcium response at Concentration (M)", "setting": "MRGPRX4 (S83); 3.125e-5 M", "result": "-42.34 and -14.448 and -21.073"}, {"measurement": "Fig. 1D dose-response, calcium response at Concentration (M)", "setting": "MRGPRX4 (S83); 6.25e-5 M", "result": "-29.178 and -38.728 and -12.364"}, {"measurement": "Fig. 1D dose-response, calcium response at Concentration (M)", "setting": "MRGPRX4 (S83); 0.00025 M", "result": "21.7467 and 26.6867 and 14.9677"}, {"measurement": "Fig. 1D dose-response, calcium response at Concentration (M)", "setting": "MRGPRX4 (S83); 0.0005 M", "result": "-0.1003 and 34.5457 and 1.141"}, {"measurement": "calcium mobilization response (Fig. 1D dose-response raw data)", "setting": "MRGPRX4 (S83); concentration 4.88281e-7 M", "result": "-35.967 and -38.387 and -9.249 and -43.815 and -12.548 and -27.242"}, {"measurement": "calcium mobilization response (Fig. 1D dose-response raw data)", "setting": "MRGPRX4 (S83); concentration 9.76563e-7 M", "result": "-3.6717 and 0.5703 and -1.3847 and -25.061 and -39.258 and -5.762"}, {"measurement": "calcium mobilization response (Fig. 1D dose-response raw data)", "setting": "MRGPRX4 (S83); concentration 1.95313e-6 M", "result": "-0.8477 and -0.3367 and -2.8407 and -17.925 and -29.096 and -31.733"}, {"measurement": "calcium mobilization response (Fig. 1D dose-response raw data)", "setting": "MRGPRX4 (S83); concentration 3.90625e-6 M", "result": "-4.2817 and -4.6827 and 7.036 and -45.513 and -21.585 and -2.642"}, {"measurement": "calcium mobilization response (Fig. 1D dose-response raw data)", "setting": "MRGPRX4 (S83); concentration 7.8125e-6 M", "result": "-6.1147 and -5.4597 and 3.666 and -0.809 and -24.700 and -20.368"}, {"measurement": "calcium mobilization response (Fig. 1D dose-response raw data)", "setting": "MRGPRX4 (S83); concentration 1.5625e-5 M", "result": "-2.1987 and 5.167 and -0.3347 and -19.624 and -8.530 and -11.014"}, {"measurement": "calcium mobilization response (Fig. 1D dose-response raw data)", "setting": "MRGPRX4 (S83); concentration 3.125e-5 M", "result": "-5.0347 and -1.5897 and 2.935 and -19.576 and -12.591 and -8.608"}, {"measurement": "calcium mobilization response (Fig. 1D dose-response raw data)", "setting": "MRGPRX4 (S83); concentration 6.25e-5 M", "result": "13.7733 and 12.6223 and 5.79 and -9.327 and -10.716 and -3.999"}, {"measurement": "calcium mobilization response (Fig. 1D dose-response raw data)", "setting": "MRGPRX4 (S83); concentration 0.00025 M", "result": "17.3763 and 20.0503 and 26.8243 and 17.981 and 21.189 and 24.656"}, {"measurement": "calcium mobilization response (Fig. 1D dose-response raw data)", "setting": "MRGPRX4 (S83); concentration 0.0005 M", "result": "40.1453 and 34.4913 and 26.1333 and 33.840 and 5.994 and 28.344"}, {"measurement": "Scratching bouts of individual animals", "setting": "NP2-WT mice", "result": "7 (2×) and 14 and 1 and 11 and 59 and 2 and 5 and 42 and 24"}, {"measurement": "Patients who reported itch", "setting": "[1]", "result": 4.5, "unit": "%"}, {"measurement": "PRESTO-Tango response (fig. S1), single replicate", "setting": "MRGPRX4 WT (S83); concentration 4.88281e-6 M", "result": "0.1853 and 0.188 and 0.1763 and 0.05734 and 0.2683 and 0.2239"}, {"measurement": "PRESTO-Tango response (fig. S1), single replicate", "setting": "MRGPRX4 WT (S83); concentration 9.76563e-6 M", "result": "0.2008 and 0.1594 and 0.1746 and 0.2158 and 0.02233 and 0.2967"}, {"measurement": "PRESTO-Tango response (fig. S1), single replicate", "setting": "MRGPRX4 WT (S83); concentration 1.95313e-5 M", "result": "0.2906 and 0.2732 and 0.1192 and 0.006784 and 0.3171 and 0.3592"}, {"measurement": "PRESTO-Tango response (fig. S1), single replicate", "setting": "MRGPRX4 WT (S83); concentration 3.90625e-5 M", "result": "0.1519 and 0.183 and 0.2178 and 0.1316 and 0.1884 and 0.2326"}, {"measurement": "PRESTO-Tango response (fig. S1), single replicate", "setting": "MRGPRX4 WT (S83); concentration 7.8125e-5 M", "result": "0.1378 and 0.1891 and 0.1982 and 0.232 and 0.1107 and 0.1825"}, {"measurement": "PRESTO-Tango response (fig. S1), single replicate", "setting": "MRGPRX4 WT (S83); concentration 0.0003125 M", "result": "0.1547 and 0.2414 and 0.1479 and 0.03891 and 0.4024 and 0.1026"}, {"measurement": "PRESTO-Tango response (fig. S1), single replicate", "setting": "MRGPRX4 WT (S83); concentration 0.000625 M", "result": "0.1541 and 0.14 and 0.1288 and 0.1405 and 0.1553 and 0.127"}, {"measurement": "PRESTO-Tango response (fig. S1), single replicate", "setting": "MRGPRX4 WT (S83); concentration 0.0025 M", "result": "0.1159 and 0.09904 and 0.1083 and 0.002223 and 0.1612 and 0.1598"}, {"measurement": "PRESTO-Tango response (fig. S1), single replicate", "setting": "MRGPRX4 WT (S83); concentration 0.005 M", "result": "0.112 and 0.09938 and 0.09678 and 0.03875 and 0.1733 and 0.09617"}]}
